Patent publication US11098040B2, “Compounds and methods of use” (Ferro Therapeutics, Inc., priority 2018, dated 2021)

Columns and labels:
KP4 = assay: Cell viability assay (CellTiter Glo), pancreatic ductal adenocarcinoma KP4; assay type: cell-based, human; details: Homo sapiens, KP-4, 96 h, pancreatic cancer cell line KP4, 96 hours, CellTiter Glo; read-out: IC50 μM KP4
Procedure: (§1) Cell viability assay was performed to assess the potency of the compounds in human cancer cell lines KP4 (pancreatic ductal adenocarcinoma), MiaPaCa-2 (pancreatic carcinoma), AsPC-1 (pancreatic adenocarcinoma, ascites), 143B (osteosarcoma), and SJSA-1 (osteosarcoma). Selected compounds were also assayed in a human breast epithelial cell line MCF-10A, a nontumorigenic cell line as a control to assess differential activity. Cells at a density of 500-5,000 cells/well were seeded in 96-well plates and incubated at 37° C. overnight. A series of 9 different concentrations of compound stocks (500×) were created by 3-fold serial dilution in DMSO. These compounds were further diluted in culture media and then added to cells so that the final DMSO concentration was equal to 0.25% or less. After 96 hours of incubation, 50 μL of CellTiter Glo reagent (Promega) was added to each well and luminescence was measured after 10 minutes using EnVision (PerkinElmer). Compounds titrated from top concentration of up to 30 μM. The select compounds were tested initially from 30 μM as the top concentration in duplicates (range of 4.6 nM-30 μM). […] Luminescence from cells treated with DMSO alone was set as Max and % of inhibition was calculated as follows: Inhibition %=(Max-Sample value)/Max*100. Data was analyzed using XL-fit software (ID Business Solutions Ltd.). IC50, relative IC50, or % of top inhibition was calculated.
as §1, with “in” for “in human”, “line” for “lines”, “adenocarcinoma).” for “adenocarcinoma), MiaPaCa-2 (pancreatic carcinoma), AsPC-1 (pancreatic adenocarcinoma, ascites), 143B (osteosarcoma), and SJSA-1 (osteosarcoma). Selected compounds were also assayed in a human breast epithelial cell line MCF-10A, a nontumorigenic cell line as a control to assess differential activity.”, “1,000-10,000” for “500-5,000”, “All” for “Compounds titrated from top concentration of up to 30 μM. The select”
(§2) The results of the assay on stability in blood and IC50 values for pancreatic cancer cell line KP4 are given below in Table 24.

[1] = Whole blood stability, mouse; assay type: in vitro ADME
Source text: as §2

[2] = Whole blood stability, human; assay type: in vitro ADME
Source text: as §2

| Structure (SMILES) | IC50 (KP4) [µM] | Whole Blood Stability % Remaining at 37° C. Mouse ([1]; 0 min) [%] | Whole Blood Stability % Remaining at 37° C. Mouse ([1]; 30 min) [%] | Whole Blood Stability % Remaining at 37° C. Mouse ([1]; 60 min) [%] | Whole Blood Stability % Remaining at 37° C. Human ([2]; 0 min) [%] | Whole Blood Stability % Remaining at 37° C. Human ([2]; 30 min) [%] | Whole Blood Stability % Remaining at 37° C. Human ([2]; 60 min) [%] |
| --- | --- | --- | --- | --- | --- | --- | --- |
| CC(=O)Nc1ccc([C@@H]2c3[nH]c4ccccc4c3C[C@H](C(=O)N(C)C)N2C(=O)CCl)cc1 [Compound 71a] | > 1 | 100.0 | 76.5 | 43.8 | 100.0 | 54.9 | 25.7 |
| CC(=O)Nc1ccc([C@H]2c3[nH]c4ccccc4c3C[C@H](C(=O)N(C)C)N2C(=O)CCl)cc1 [Compound 71] | > 1 | 100.0 | 90.4 | 75.5 | 100.0 | 80.4 | 59.3 |
| COC(=O)c1ccc([C@H]2c3[nH]c4ccccc4c3C[C@H](C(=O)O)N2C(=O)CCl)cc1 [Compound 3] | > 1 | 100 | 51.3 | 23.6 | 100 | 43.0 | 29.4 |
| CN(C)C(=O)[C@H]1Cc2c([nH]c3ccccc23)[C@@H](c2ccc([Si](C)(C)C)cc2)N1C(=O)CCl [Compound 67a] | > 1 | 100.0 | 52.4 | 18.2 | 100.0 | 35.5 | 15.5 |
| C[C@H]1Cc2c([nH]c3ccccc23)[C@H](c2ccc(S(=O)(=O)N[C@]34CC5C[C@H](C[C@H](C5)C3)C4)cc2)N1C(=O)CCl [Compound 101] | < 0.01 | 100.0 | 82.2 | 113.2 | 100.0 | 46.8 | 29.8 |
| CC(C)(C)OC(=O)c1ccc([C@@H]2c3[nH]c4ccccc4c3C[C@H](CO)N2C(=O)CCl)cc1 [Example 64a] | > 1 | 100.0 | 8.3 | 3.2 | 100.0 | 38.0 | 15.5 |
| CC(C)(C)OC(=O)[C@H]1Cc2c([nH]c3ccccc23)[C@H](c2ccc([N+](=O)[O-])cc2)N1C(=O)CCl [Compound 11] | 0.01 to 0.1 | 100.0 | 56.9 | 38.6 | 100.0 | 67.1 | 59.9 |
| COC(=O)[C@H]1Cc2c([nH]c3ccccc23)[C@H](c2ccc(C(=O)N3CCOCC3)cc2)N1C(=O)CCl [Compound 26] | 0.01 to 0.1 | 100.0 | 67.7 | 55.7 | 100.0 | 47.1 | 22.9 |
| COC(=O)[C@H]1Cc2c([nH]c3ccccc23)[C@H](c2ccc(C(=O)OC(C)(C)C)cc2)N1C(=O)CCl [Compound 1] | < 0.01 | 100.0 | 59.6 | 46.6 | 100.0 | 60.5 | 43.0 |
| COC(=O)c1ccc([C@H]2c3[nH]c4cc(Br)ccc4c3C[C@H](C(=O)OC)N2C(=O)CCl)cc1 [Compound 96] | < 0.01 | 100.0 | 0.0 | 0.0 | 100.0 | 29.1 | 10.9 |
| CN(C)C(=O)[C@H]1Cc2c([nH]c3ccccc23)[C@H](c2ccc(C(=O)N3CCC(O)CC3)cc2)N1C(=O)CCl [Compound 45] | > 1 | 100.0 | 91.2 | 81.5 | 100.0 | 71.4 | 56.4 |
| CN(C)C(=O)[C@H]1Cc2c([nH]c3ccccc23)[C@H](c2ccc(C(=O)NC[Si](C)(C)C)cc2)N1C(=O)CCl [Compound 66] | 0.01 to 0.1 | 100.0 | 69.8 | 26.8 | 100.0 | 79.1 | 45.8 |
| C[C@H]1Cc2c([nH]c3ccc(C#N)cc23)[C@H](c2ccc(N3CCOCC3)cc2)N1C(=O)CCl [Compound 115] | < 0.01 | 100.0 | 34.2 | 0.0 | 100.0 | 72.9 | 44.0 |
| COC(=O)[C@H]1Cc2c([nH]c3ccccc23)[C@H](c2ccc(C(=O)OCC3CCCCC3)cc2)N1C(=O)CCl [Compound 89] | < 0.01 | 100.0 | 0.0 | 0.0 | 100.0 | 84.8 | 91.2 |
| CC(C)OC(=O)[C@H]1Cc2c([nH]c3ccccc23)[C@H](c2ccc(C(=O)OC(C)(C)C)cc2)N1C(=O)CCl [Compound 20] | < 0.01 | 100.0 | 39.9 | 19.1 | 100.0 | 50.7 | 41.6 |
